This passage reports Activity results from ChEMBL document CHEMBL1151385, “Antineoplastic Agents 78. Isolation of Palystatins 1-3 From the Indian Ocean Palythoa liscia” (J Nat Prod, 1982).

Assay [1] relates to P388. Briefly: In vivo cytotoxicity against mouse P388 cells assessed as life extension at 0.1 ug/kg. Type of assay: functional, organism-based.
The test system of assay [2] is Ehrlich. The assay is described as follows: In vivo cytotoxicity against mouse EAC cells. Type of assay: functional, organism-based.

Molecules are shown by their SMILES.

In the case of `C=C(/C=C\C[C@@H](O)[C@@H](O)[C@H](O)C/C=C/C=C\[C@@H](O)C[C@@H]1O[C@H](C[C@@H](O)[C@H](O)C[C@H]2O[C@H]([C@H](O)[C@H](O)CC[C@H](O)/C=C/[C@H](C)[C@@H](O)C[C@]3(O)O[C@H](C[C@@H](O)CCCCCCC[C@@]45C[C@@H](C)C[C@@](C)(O4)[C@@H](C[C@@H](C)CCCCC[C@@H](O)[C@H](O)[C@H](O)[C@@H](O)[C@H](O)[C@H]4O[C@H](C[C@H](O)[C@H](O)/C(C)=C/[C@H](O)C[C@@H](C)[C@H](O)C(=O)N/C=C/C(=O)NCCCO)[C@H](O)[C@@H](O)[C@@H]4O)O5)[C@H](O)[C@@H](O)[C@H]3O)C[C@@H](O)[C@@H]2O)[C@@H](O)[C@H](O)[C@H]1O)CC[C@H](O)[C@@H](O)[C@H](O)[C@H](C)C[C@H]1O[C@H](/C=C\[C@@H](O)CC[C@@H]2C[C@@H]3C[C@H](O2)[C@@H](CC[C@H]2O[C@H](CN)C[C@H]2O)O3)[C@@H](O)[C@H](O)[C@H]1O`, the Activity in assay [1] stood at 32%; in assay [2] it was 0.34 µg/kg.
